Source: patent US11512224B2, “Water-based coating composition and production method of the same” (TOYOTA JIDOSHA KABUSHIKI KAISHA, priority 2018, dated 2022)
Values belong to the molecule of their own block, whether it stands above or below them.

Experiment: Solubility in water at 20° C.
Details: for Solubility of curing catalyst in water: under atmospheric pressure at 20° C.; for Solubility of organic solvent in water: 20° C.

Compound: C1CCC2=NCCCN2CC1 [DBU, diazabicycloundecene]
Solubility of curing catalyst in water: 5 or greater g/100 ml
Solubility of curing catalyst in water (listed as diazabicycloundecene): ≥ 0.5 g/100 ml

Solubility of curing catalyst in water: 5 or greater g/100 ml
Solubility of curing catalyst in water (listed as diazabicyclononene): ≥ 0.5 g/100 ml
Compound: C1CN=C2CCCN2C1 [DBN, diazabicyclononene]

Solubility of organic solvent in water: ≥ 10 or g/100 ml
Solubility of organic solvent in water (listed as 1-methoxy-2-propanol): ≥ 10 g/100 ml
Compound: COCC(C)O (stereo not shown) [PGME, 1-methoxy-2-propanol]

Compound: C1CCC2=NCCCN2CC1.Cc1ccc(S(=O)(=O)O)cc1 [DBU salt, diazabicycloundecene p-toluenesulfonate]
Solubility of curing catalyst in water (listed as diazabicycloundecene p-toluenesulfonate, p-toluenesulfonate): ≥ 0.5 g/100 ml
Solubility of curing catalyst in water (p-toluenesulfonate): 5 or greater g/100 ml

Compound: CC(C)O [IPA, 2-propanol]
Solubility of organic solvent in water: ≥ 10 or g/100 ml
Solubility of organic solvent in water (listed as 2-propanol): ≥ 10 g/100 ml
